Measured values as given in publication PMC8307156, “Agelasine Diterpenoids and Cbl-b Inhibitory Ageliferins from the Coralline Demosponge Astrosclera willeyana” (Marine Drugs, 2021).

The molecules below were run against T1, Cbl-b ubiquitin ligase (N1/2 construct) (Homo sapiens, UniProt Q13191) (assay: Cbl-b biochemical assay (in vitro autoubiquitination ELISA, inhibition of ubiquitin ligase activity)). Details: in vitro enzymatic activity of Cbl-b ubiquitin ligase; 75-nM Cbl-b, 100 µM ATP, 60 min reaction; read-out: Cbl-b inhibitory activity IC50.
T1 construct: 75-nM Cbl-b (N1/2 construct) [27]
Protocol: Compounds 1–10 were tested for their ability to inhibit the in vitro enzymatic activity of the Cbl-b ubiquitin ligase (Table 3). […] There was no clear pattern of N-methylation or bromine substitution of the two pyrrole rings that directly correlated with the observed Cbl-b inhibitory activity.
An extract of Astrosclera willeyana was identified as an active source in a screening campaign of prefractionated natural product samples for the inhibition of Cbl-b ubiquitin ligase activity. The bulk extract was fractionated as described above, and the resulting fractions were evaluated for activity in the Cbl-b bioassay, the details of which have already been reported. In brief, dose response experiments with chromatography fractions and purified compounds were carried out in a Tris-HCl-based enzymatic assay buffer with the following final composition: 75-nM Cbl-b (N1/2 construct), 50-nM Ube2d2 protein (E2), 10-nM UBE1protein (E1), 50-nM biotinylated ubiquitin, and 0.5-µM unlabeled recombinant ubiquitin. The assay buffer also contained the following additives: 0.1-mM dithiothreitol, 0.5-mg/mL bovine gelatin (type B), 0.5-mM magnesium chloride, and 0.01% Triton X-100. Reactions were initiated by the addition of ATP to a final concentration of 100 µM. Following initiation, reactions were transferred to plates previously precoated overnight with 10 µg/mL of the polyubiquitin-binding domain of Cbl-b (UBA). The UBA domain of Cbl-b binds ubiquitin chains, which results in the capture and enrichment of autopolyubiquitinated Cbl-b. Following a reaction interval of 60 min, the reactions were quenched by the addition of zinc to a final concentration of 2.4 mM. Quenched reactions were incubated at room temperature overnight. Following this incubation period reaction, plates were processed as standard ELISA plates: washed thrice in Tris-buffered saline (with 0.1% Tween-20, 1X TBST), probed with avidin-conjugated horse radish peroxidase, which binds captured biotinylated ubiquitin, washed again in 1X TBST (3X), and then, an avidin-HRP-dependent fluorescent signal (indicating avidin-HRP/biotin-polyubiquitin complexes captured by the UBA coating on the plate) was detected (excitation 325 nm, emission 420 nm) using an Infinite M1000 (Tecan US, Inc., Raleigh, NC, USA) plate reader.

T1 sequence (Q13191 1-483 limits assumed): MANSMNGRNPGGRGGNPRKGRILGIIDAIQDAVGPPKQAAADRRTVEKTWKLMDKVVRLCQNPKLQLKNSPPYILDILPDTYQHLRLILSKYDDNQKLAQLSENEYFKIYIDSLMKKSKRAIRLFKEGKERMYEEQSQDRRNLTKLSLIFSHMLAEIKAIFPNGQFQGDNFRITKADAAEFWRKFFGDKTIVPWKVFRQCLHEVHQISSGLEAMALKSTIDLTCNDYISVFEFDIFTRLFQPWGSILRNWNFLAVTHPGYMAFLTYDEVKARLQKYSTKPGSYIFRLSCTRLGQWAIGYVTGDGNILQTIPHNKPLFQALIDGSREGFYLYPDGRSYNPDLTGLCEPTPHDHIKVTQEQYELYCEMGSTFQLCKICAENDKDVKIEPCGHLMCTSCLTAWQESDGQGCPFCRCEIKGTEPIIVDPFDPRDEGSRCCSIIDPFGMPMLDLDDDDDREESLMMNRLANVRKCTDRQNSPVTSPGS

Structure (SMILES) | IC50
CC(=CCn1cnc2c1c(N)nc[n+]2C)CCC1(C)C2=CCCC(C)(C)C2CCC1C (stereo not shown) [Compound 1, Agelasine W] | 57000 nM
CNc1nc[n+](C)c2ncn(C/C=C(\C)CC[C@]3(C)C4=CCCC(C)(C)[C@H]4CC[C@H]3C)c12 [Compound 2, Agelasine X] | 72000 nM
CNc1nc[n+](C)c2ncn(C/C=C(\C)CC[C@@]3(C)[C@H](C)CC[C@]4(C)C(C)=CCC[C@H]34)c12 [Compound 3, Agelasine Y] | 66000 nM
Cn1cc(Br)cc1C(=O)NCC1C(CNC(=O)c2ccc(Br)[nH]2)Cc2[nH]c(N)nc2C1c1c[nH]c(N)n1 (stereo not shown) [Compound 4, N(1)-methylisoageliferin] | 33000 nM
Cn1cc(Br)cc1C(=O)NC[C@H]1Cc2nc(N)[nH]c2[C@@H](c2c[nH]c(N)n2)[C@@H]1CNC(=O)c1cc(Br)c(Br)[nH]1 [Compound 9, N(1′)-methyl-2-bromoageliferin] | 19000 nM
Cn1c(C(=O)NC[C@H]2Cc3nc(N)[nH]c3[C@@H](c3c[nH]c(N)n3)[C@@H]2CNC(=O)c2cc(Br)c[nH]2)cc(Br)c1Br [Compound 10, N(1′)-methyl-2′-bromoageliferin] | 35000 nM

Further lines, results first:

IC50 | Structure (SMILES)
25000 nM | Cn1c(Br)ccc1C(=O)NC[C@H]1Cc2nc(N)[nH]c2[C@@H](c2c[nH]c(N)n2)[C@@H]1CNC(=O)c1cc(Br)c[nH]1 [Compound 5, N(1′)-methylisoageliferin]
30000 nM | Cn1cc(Br)cc1C(=O)NC[C@H]1Cc2nc(N)[nH]c2[C@@H](c2c[nH]c(N)n2)[C@@H]1CNC(=O)c1cc(Br)c[nH]1 [Compound 6, N(1′)-methylageliferin]
18000 nM | Cn1cc(Br)cc1C(=O)NC[C@@H]1[C@@H](CNC(=O)c2ccc(Br)n2C)Cc2nc(N)[nH]c2[C@H]1c1c[nH]c(N)n1 [Compound 7, N(1),N(1′)-dimethylisoageliferin]
19000 nM | Cn1cc(Br)cc1C(=O)NC[C@H]1Cc2nc(N)[nH]c2[C@@H](c2c[nH]c(N)n2)[C@@H]1CNC(=O)c1cc(Br)cn1C [Compound 8, N(1),N(1′)-dimethylageliferin]
